According to patent US4766108A, “Tyr-Arg-vasopressin antagonists” (Smith Kline Beckman Corporation, priority 1986, dated 1988):
pKi: −log10 of the molar value. Numbered stars: 1 amine (or outer) side, 2 acyl side, 3 side chain; on linkers, the order of the positions; unused ones are H or OH. Bridge positions count the residues as written; N and C are the ends. Square brackets hold non-standard residues; d marks the D form. Peptide text beside a SMILES is read from it. X1 = O=C(CC1(S[*:2])CCCCC1)[*:1]

How the values were obtained:
[1] = target: T1, vasopressin receptors (V2 -receptors) in the porcine renal medullary membrane (Sus scrofa, UniProt P32307); experiment: [3H]-LVP binding, porcine renal medullary membrane (Kbind); details: affinity of ligand for receptor in porcine renal medullary membrane; from IC50 of [3H]-LVP binding, Kb = IC50/(1 + L/KD)
T1 construct: the porcine renal medullary membrane; It is derived from the equation for; from tissue; host or cells: porcine (hog) kidney medullary membranes
Protocol: (§1) V2 -antagonistic activity toward the natural anti-diuretic hormone (anti-ADH activity) is determined, in vitro, in the medullary tissue of hog or human kidneys and, in vivo, in the hydropenic rat. The in vitro assay procedures for vasopressin stimulated adenylate cyclase activation or vasopressin binding activity are described by F. Stassen et al., J. Pharmacology and Experimental Therapeutics, 223, 50-54 (1982). V1 -antagonistic activity is determined by procedures using the rat thoracic aortic tissue and plasma membranes of rat liver. These procedures are described in the noted Stassen publication and in a publication at the lst International Conference on Diuretics, Miami, Fla., March (1984). Oxytocin antagonism is determined as described by W. Sawyer et al., Endocrinology, 106 81 (1979). | ^a Kbind is a measure of the affinity of ligand for receptor in | the porcine renal medullary membrane. It is derived from the equation for | competitive inhibition Kb = IC50 /(1 + L/KD) where | IC50 is the concentration of the ligand for 50% inhibition of [^ | H]-LVP binding, L is the concentration of the ligand, and KD is the | dissociation constant of [ ^3 H]-LVP.

[2] = target: T2, V1 receptor, human liver membrane (Homo sapiens, UniProt P37288); experiment: Binding to human liver membrane (V1 receptor); details: read-out: Kbind human liver (V1 receptor)
T2 construct: from tissue; host or cells: human liver membranes
Protocol: as §1, with “(1979).” for “(1979). | ^a Kbind is a measure of the affinity of ligand for receptor in | the porcine renal medullary membrane. It is derived from the equation for | competitive inhibition Kb = IC50 /(1 + L/KD) where | IC50 is the concentration of the ligand for 50% inhibition of [^ | H]-LVP binding, L is the concentration of the ligand, and KD is the | dissociation constant of [ ^3 H]-LVP.”
^d Kbind relates to human liver membrane activity.

T1 sequence (P32307 whole entry): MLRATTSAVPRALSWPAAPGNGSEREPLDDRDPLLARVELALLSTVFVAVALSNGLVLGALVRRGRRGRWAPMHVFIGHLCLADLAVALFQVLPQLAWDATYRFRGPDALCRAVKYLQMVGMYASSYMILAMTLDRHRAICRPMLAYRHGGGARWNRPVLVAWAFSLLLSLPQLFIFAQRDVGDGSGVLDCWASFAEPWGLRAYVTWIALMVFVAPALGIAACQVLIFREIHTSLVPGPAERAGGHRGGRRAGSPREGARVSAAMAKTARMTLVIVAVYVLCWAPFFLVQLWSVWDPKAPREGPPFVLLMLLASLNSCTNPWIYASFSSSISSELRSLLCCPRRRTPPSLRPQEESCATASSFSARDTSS
T2 sequence (P37288 whole entry): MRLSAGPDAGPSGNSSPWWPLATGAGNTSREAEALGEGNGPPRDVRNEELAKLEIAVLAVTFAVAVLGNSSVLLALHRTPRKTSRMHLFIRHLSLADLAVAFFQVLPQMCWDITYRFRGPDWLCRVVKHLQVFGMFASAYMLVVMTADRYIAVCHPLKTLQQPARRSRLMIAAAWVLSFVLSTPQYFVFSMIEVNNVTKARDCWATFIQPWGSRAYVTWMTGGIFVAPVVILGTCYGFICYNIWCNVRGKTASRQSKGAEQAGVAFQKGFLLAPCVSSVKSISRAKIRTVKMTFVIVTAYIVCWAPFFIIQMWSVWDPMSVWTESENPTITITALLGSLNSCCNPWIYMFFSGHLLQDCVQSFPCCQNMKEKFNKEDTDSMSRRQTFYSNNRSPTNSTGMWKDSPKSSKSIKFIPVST

Row | SMILES | pKi [1] | pKi [2]
1 | CCOc1ccc(C[C@H]2NC(=O)CC3(CCCCC3)SSC[C@@H](C(=O)N[C@@H](Cc3ccc(O)cc3)C(=O)N[C@@H](CCCNC(=N)N)C(N)=O)NC(=O)[C@H](CC(N)=O)NC(=O)[C@H](C(C)C)NC(=O)[C@H](Cc3ccccc3)NC2=O)cc1 [No. 1, [1-(β-mercapto-β,β-cyclopentamethylene-propionic acid)-2-(O-ethyl)-D-tyrosine-4-valine-7-tyrosine-8-arginine-desglycine]-vasopressin] ([dY](Et)FVNCYR-NH2; linker N-5 via X1) | 7.85 | –
2 | CCOc1ccc(C[C@H]2NC(=O)CC3(CCCCC3)SSC[C@@H](C(=O)N[C@@H](CCCNC(=N)N)C(=O)N[C@@H](Cc3ccc(O)cc3)C(N)=O)NC(=O)[C@H](CC(N)=O)NC(=O)[C@H](C(C)C)NC(=O)[C@H](Cc3ccccc3)NC2=O)cc1 [No. 2, [1-(β-mercapto-β,β-cyclopentamethylene-propionic acid)-2-(O-ethyl)-D-tyrosine-4-valine-7-arginine-8-tyrosine-9-desglycine]-vasopressin] ([dY](Et)FVNCRY-NH2; linker N-5 via X1) | 7.64 | 8.74
3 | CCOc1ccc(C[C@H]2NC(=O)CC3(CCCCC3)SSC[C@@H](C(=O)N[C@@H](CCCNC(=N)N)C(=O)N[C@@H](CCCNC(=N)N)C(N)=O)NC(=O)[C@H](CC(N)=O)NC(=O)[C@H](C(C)C)NC(=O)[C@H](Cc3ccccc3)NC2=O)cc1 [compound 3] ([dY](Et)FVNCRR-NH2; linker N-5 via X1) | 8.57 | –
4 | CCOc1ccc(C[C@H]2NC(=O)CC3(CCCCC3)SSC[C@@H](C(=O)N[C@@H](CCCCN)C(=O)N[C@@H](CCCNC(=N)N)C(N)=O)NC(=O)[C@H](CC(N)=O)NC(=O)[C@H](C(C)C)NC(=O)[C@H](Cc3ccccc3)NC2=O)cc1 [compound 4] ([dY](Et)FVNCKR-NH2; linker N-5 via X1) | 8.06 | –
5 | CCOc1ccc(C[C@H]2NC(=O)CC3(CCCCC3)SSC[C@@H](C(=O)N[C@@H](CCCNC(=N)N)C(N)=O)NC(=O)[C@H](CC(N)=O)NC(=O)[C@H](C(C)C)NC(=O)[C@H](Cc3ccccc3)NC2=O)cc1 [compound 5] ([dY](Et)FVNCR-NH2; linker N-5 via X1) | 7.96 | 8.92
